The results in this text go back to patent US8563472B2 (priority 2010, dated 2013).

Data set [1] concerns Leptosphaeria nodorum (LEPTNO). The experiment in a line: In vitro fungitoxicity assay against Leptosphaeria nodorum in copper-minus / copper-plus liquid medium. Type of data set: cell-based. As to conditions: for inhibition of growth at 0.05 µg/mL: Parastagonospora nodorum, copper-minus medium, growth by light scattering, read-out: LEPTNO % Inhn. Minus Copper Observed; for inhibition of growth at 0.05 µg/mL / LEPTNO % Inhn. Plus Copper Observed: test compound 0.05 μg/mL, 25° C., 72 h; for LEPTNO % Inhn. Plus Copper Observed: copper-plus medium (CuCl2.2H2O). On the procedure:
In vitro fungitoxicity assays against Leptosphaeria nodorum (LEPTNO) were conducted using the liquid growth medium described by Coursen and Sisler (American Journal of Botany 1960, 47, 541-549) except that copper micronutrient, normally included as CuSO4, was omitted. The medium, termed “copper-minus”, was prepared by dissolving 10 g glucose, 1.5 g K2HPO4, 2 g KH2PO4 and 1 g (NH4)2SO4 in 1 liter of deionized water and treating the solution with 0.5 g Chelex 100 resin (Bio-Rad Analytical grade, 50-100 mesh, sodium form, cat#142-2822) by stirring at room temperature for 1 h. MgSO4.7H2O (0.5 g) was added, and stirring was continued for a further hour. Trace elements (minus CuSO4), and vitamins described by Coursen and Sisler were added from concentrated stock solutions and the entire medium was sterilized by filtration. Medium containing copper was prepared by adding CuCl2.2H2O to the copper-minus medium at 20 μM. […] Copper-minus medium (100 μL) was added to one of the wells and copper-plus medium to the second well. Control wells, included for each medium, received 1 μL DMSO and 100 μL of medium.
LEPTNO was grown on potato dextrose agar in 9 cm diameter petri dishes for 7 days (d). Sterile deionized water (20 mL) was added to a culture plate and spores suspended by scraping the surface gently with a sterile plastic loop. The resulting suspension was filtered through a double layer of sterile cheesecloth. […] The spores were resuspended in copper-minus medium, and the suspension adjusted to 2×10^5 spores per mL. Microtiter plates were inoculated with 100 μL of this spore suspension and the plates incubated at 25° C. for 72 h before assessing fungal growth by measuring light scattering in a NepheloStar plate reader. Growth inhibition was determined by comparing growth in the presence of test compound with growth in control wells lacking test compound.

A further data set deals with Phytophthora infestans. Type of data set: in vivo. As to conditions: hydrazone 50 ppm with 50 μM CuCl2.2H2O, applied 24 h before inoculation, tomato plants, assessed 7 d after inoculation.

With `C=CCc1cccc(/C=N/NC(=O)c2ccc(Br)o2)c1O` [Compound 11], in data set [1], the inhibition of growth at 0.05 µg/mL was determined as 12.9% and the “LEPTNO % Inhn. Plus Copper Observed” value was found to be 95.1%. In addition, the TLB % control in the data set with Phytophthora infestans was 31%.
In the case of `O=C(N/N=C/c1ccccc1)c1cnn(-c2ccc(Cl)cc2)c1C(F)(F)F` [Compound 18], the melting point is 205 to 207 °C. In data set [1], the inhibition of growth at 0.05 µg/mL is 0% and the “LEPTNO % Inhn. Plus Copper Observed” value amounted to 92.5%. This molecule came in with a TLB % control in the data set with Phytophthora infestans of 7%.
In the case of `O=C(N/N=C/c1cc(Cl)cc(Cl)c1O)c1ccco1` [Compound 14], in data set [1], the inhibition of growth at 0.05 µg/mL is 0% and the “LEPTNO % Inhn. Plus Copper Observed” value is 56.2%. Further, the TLB % control in the data set on Phytophthora infestans is 52%.
`O=C(N/N=C/c1cc(Cl)cc(Cl)c1O)c1ccsc1` [Compound 28] yielded a melting point of 315 to 318 °C. In addition, in data set [1], the inhibition of growth at 0.05 µg/mL came to 4.4% and the “LEPTNO % Inhn. Plus Copper Observed” value is on record as 97.6%. Besides, the TLB % control with Phytophthora infestans is listed as 80%.
Regarding `C/C(=N\NC(=O)c1ccc(Cl)s1)c1cc(Cl)cc(Cl)c1O` [Compound 44], the melting point fell in the range of 221 to 224 °C. In data set [1], the inhibition of growth at 0.05 µg/mL was determined as 2% and the “LEPTNO % Inhn. Plus Copper Observed” value was found to be 96.9%. The molecule further displayed a TLB % control in the data set on Phytophthora infestans of 68%.
For `CCn1nc(C)cc1C(=O)N/N=C/c1cc(Cl)cc(Cl)c1O` [Compound 16] the same measures were 221 to 222 °C, 3.5%, 88% and 39%.
For `CN1CCCCC1C(=O)N/N=C/c1cc(Cl)cc(Cl)c1O` (centres unmarked) [Compound 54, 1-methyl-piperidine-2-carboxylic acid [1-(3,5-dichloro-2-hydroxy-phenyl)-methylidene]-hydrazide] the same measures were 107 to 110 °C, 0%, 91% and 22%.
On to `O=C(N/N=C/c1cc(Cl)ccc1O)c1cccs1` [Compound 5], for which, in data set [1], the inhibition of growth at 0.05 µg/mL came out at 0% and the “LEPTNO % Inhn. Plus Copper Observed” value stood at 95.8%. The same molecule had a TLB % control in the data set with Phytophthora infestans of 54%.
Turning to `O=C(N/N=C/c1cc(Br)cc(Br)c1O)c1ccc(Cl)s1` [Compound 31], the melting point was in the range of 247 to 248 °C. Also, in data set [1], the inhibition of growth at 0.05 µg/mL came to 4.9% and the “LEPTNO % Inhn. Plus Copper Observed” value was 97.8%. In the data set on Phytophthora infestans, the TLB % control was determined as 88%.
For `O=C(N/N=C/c1ccccc1O)c1cc2ccccc2s1` [Compound 20] the same measures were 220 to 221 °C, 4.2%, 95.4% and 18%.
Turning to `O=C(N/N=C/c1ccccc1O)c1cccs1` [Compound 7], in data set [1], the inhibition of growth at 0.05 µg/mL turned out to be 0% and the “LEPTNO % Inhn. Plus Copper Observed” value was found to be 87.3%. In addition, in the data set on Phytophthora infestans, the TLB % control turned out to be 38%.
For `C/C(=N\NC(=O)c1csc(C)c1)c1cc(Br)cc(Br)c1O` [Compound 51], the melting point lay in the range of 237 to 239 °C. Besides, in data set [1], the inhibition of growth at 0.05 µg/mL amounted to 2.2% and the “LEPTNO % Inhn. Plus Copper Observed” value is listed as 98%. Further, the TLB % control in the data set on Phytophthora infestans turned out to be 88%.
Taken in the same sequence, the figures for `C/C(=N\NC(=O)c1sc(C)nc1C)c1cc(Br)cc(Br)c1O` [Compound 49] were 221 to 223 °C, 2.6%, 89.1% and 61%.
Take `Cc1ccc(C(=O)N/N=C/c2cc(Br)cc(Cl)c2O)cn1` [Compound 8]: in data set [1], the inhibition of growth at 0.05 µg/mL came out at 0% and the “LEPTNO % Inhn. Plus Copper Observed” value is recorded as 60.9%. In the data set with Phytophthora infestans, this molecule came in with a TLB % control of 0%.
In turn, `Cc1nc(C)c(C(=O)N/N=C/c2cc(Cl)cc(Cl)c2O)s1` [Compound 25] showed a melting point of 217 to 219 °C. Moreover, in data set [1], the inhibition of growth at 0.05 µg/mL is 0% and the “LEPTNO % Inhn. Plus Copper Observed” value was 81.9%. Also, the TLB % control in the data set with Phytophthora infestans is given as 71%.
As to `Cc1occc1C(=O)N/N=C/c1cc(Br)ccc1O` [Compound 6], in data set [1], the inhibition of growth at 0.05 µg/mL is 2.2% and the “LEPTNO % Inhn. Plus Copper Observed” value is on record as 96.7%. The molecule further registered a TLB % control in the data set on Phytophthora infestans of 75%.
Turning to `C/C(=N\NC(=O)c1ccc(Cl)s1)c1cc(Br)cc(Br)c1O` [Compound 50], the melting point is 253 to 255 °C. For the same molecule, in data set [1], the inhibition of growth at 0.05 µg/mL was determined as 0% and the “LEPTNO % Inhn. Plus Copper Observed” value is recorded as 97.5%. Besides, in the data set with Phytophthora infestans, the TLB % control worked out at 85%.
As for `O.O.[Cl][Cu][Cl]` [CuCl2, CuCl2.2H2O, reference compound], the “LEPTNO % inhibition attributed to copper chloride alone” value in data set [1] (CuCl2 10 μM, no test compound, copper-plus vs copper-minus medium across experiments) was 9.3 ± 1.6%.
The molecule `C/C(=N\NC(=O)c1ccoc1C)c1cc(Br)cc(Br)c1O` [Compound 52] displayed a melting point of 201 to 204 °C. In data set [1], the inhibition of growth at 0.05 µg/mL is 0% and the “LEPTNO % Inhn. Plus Copper Observed” value was 97.7%. In the data set with Phytophthora infestans, this molecule registered a TLB % control of 66%.
Taken in the same sequence, the figures for `C/C(=N\NC(=O)c1ccsc1)c1ccccc1O` [Compound 40] were 148 to 150 °C, 0%, 96.8% and 80%.
For `Cc1nc(C)c(C(=O)N/N=C/c2cc(Br)cc(Br)c2O)s1` [Compound 30] the same measures were 225 to 226 °C, 1%, 71.2% and 49%.
For the molecule `Cc1nn(-c2ccccc2)nc1C(=O)N/N=C/c1ccccc1O` [Compound 21], the melting point fell in the range of 231 to 233 °C. Further, in data set [1], the inhibition of growth at 0.05 µg/mL worked out at 0% and the “LEPTNO % Inhn. Plus Copper Observed” value came to 93.9%. The molecule further came in with a TLB % control in the data set on Phytophthora infestans of 16%.
Taken in the same sequence, the figures for `O=C(N/N=C/c1cc(Br)cc(Br)c1O)c1ccsc1` [Compound 34] were 236 to 237 °C, 0%, 97.9% and 80%.
For `C/C(=N\NC(=O)c1csc(C)c1)c1cc(Cl)cc(Cl)c1O` [Compound 45] the same measures were 218 to 220 °C, 3.7%, 98.3% and 83%.
The molecule `O=C(N/N=C/c1cc(Cl)cc(Cl)c1O)c1ccc(Cl)s1` [Compound 26] gave a melting point of 248 to 250 °C. Also, in data set [1], the inhibition of growth at 0.05 µg/mL came out at 2.7% and the “LEPTNO % Inhn. Plus Copper Observed” value turned out to be 97.5%. In the data set on Phytophthora infestans, this molecule had a TLB % control of 92%.
Taken in the same sequence, the figures for `O=C(N/N=C/c1ccccc1O)c1ccc(Cl)s1` [Compound 23] were 228 to 230 °C, 0%, 96.3% and 32%.
For the molecule `Cc1occc1C(=O)N/N=C/c1cc(Cl)cc(Cl)c1O` [Compound 10], in data set [1], the inhibition of growth at 0.05 µg/mL worked out at 8.7% and the “LEPTNO % Inhn. Plus Copper Observed” value is recorded as 98.1%. The molecule further registered a TLB % control in the data set with Phytophthora infestans of 67%.
Molecule `O=C(N/N=C/c1cc(Cl)cc(Cl)c1O)c1sc(C(F)(F)F)nc1C(F)(F)F` [Compound 12] registered a melting point of 189 to 190 °C. For the same molecule, in data set [1], the inhibition of growth at 0.05 µg/mL came to 49.8% and the “LEPTNO % Inhn. Plus Copper Observed” value is given as 94.7%. In the data set on Phytophthora infestans, this molecule had a TLB % control of 57%.
Taken in the same sequence, the figures for `C/C(=N\NC(=O)c1cnn(-c2ccc(Cl)cc2)c1C(F)(F)F)c1cc(Br)cc(Br)c1O` [Compound 48] were 121 to 125 °C, 4.3%, 56% and 19%.
Taken in the same sequence, the figures for `C/C(=N\NC(=O)c1cnn(-c2ccc(Cl)cc2)c1C(F)(F)F)c1cc(Cl)cc(Cl)c1O` [Compound 41] were 209 to 211 °C, 0%, 71.3% and 36%.
In the case of `O=C(N/N=C/c1ccccc1O)c1sc2ccccc2c1Cl` [Compound 19], in data set [1], the inhibition of growth at 0.05 µg/mL stood at 0% and the “LEPTNO % Inhn. Plus Copper Observed” value is given as 92.1%. Besides, the TLB % control in the data set with Phytophthora infestans is on record as 44%.
For `C/C(=N\NC(=O)c1ccoc1C)c1ccccc1O` [Compound 9] the same measures were 3.9%, 97% and 60%.
